Source: US7371551B1, “Feedback-resistant homoserine transsuccinylases” (priority 2002, dated 2008)

Key:
[1] = target: T1, E. coli homoserine transsuccinylase (MetA, SEQ ID No. 2) variant pKP446, Tyr294 replaced with Cys (Escherichia coli, UniProt P07623, Y294C); assay: biochemical; conditions: pH 7.6, read-out: Activity (%) in the presence of 1 mM L-methionine
T1 construct: made in house; host or cells: E. coli W3110 (ATCC 27325), cell extract
Description: (§1) Any method which enables the activity of the enzyme to be determined in the presence of L-methionine or SAM can be used for determining the sensitivity of the homoserine transsuccinylase to L-methionine and/or SAM. For example, the homoserine transsuccinylase activity can be determined by following the method described by Kredich and Tomkins for determining the activity of serine acetyltransferases (Kredich N. M. and Tomkins G. M., J. Biol. Chem. 241, 4955-4965 (1966)). The enzyme activity is measured in an assay sample which contains homoserine and succinyl-CoA. The reaction is started by adding enzyme and monitored in a spectrophotometer by way of the decrease in the extinction at 232 nm which results from cleavage of the thioester bond in the succinyl-coenzyme A. The described test is suitable for determining the sensitivity of the homoserine transsuccinylases to methionine. The inhibition of homoserine transsuccinylase activity is tested in the presence of different concentrations of L-methionine in the reaction mixture.
(§2) The activity, and the influence of L-methionine on the activity, of the different homoserine transsuccinylases were determined by means of an enzyme test using cell extracts in which the respective proteins had been produced. For this, the corresponding plasmids, encoding altered homoserine transsuccinylases, were introduced, by transformation, into the E. coli strain W3110 (ATCC 27325) using methods known to the skilled person. The transformation mixture was spread on LB-tetracycline agar plates (10 g of tryptone/l, 5 g of yeast extract/l, 5 g of NaCl/l, 15 g of agar/l and 15 mg of tetracycline/l) and incubated at 37° C. overnight. The resulting transformants were grown in SM1 medium (for 1 l of medium: CaCl2×2H2O, 0.0147 g, MgSO4×7H2O, 0.3 g, Na2MoO4×2H2O, 0.15 mg, H3BO3, 2.5 mg, CoCl2×6H2O, 0.7 mg, CuSO4×5H2O, 0.25 mg, MnCl2×4H2O, 1.6 mg, ZnSO4×7H2O, 0.3 mg, KH2PO4, 3.0 g, K2HPO4, 12.0 g, (NH4)2SO4, 5 g, NaCl, 0.6 g, FeSO4×7H2O, 0.002 g, Na3-citrate×2H2O, 1 g, glucose, 5 g, tryptone, 1 g, yeast extract, 0.5 g), centrifuged down at an absorption of approx. 0.8 at 600 nm, washed in 50 mM Tris pH 7.5, and centrifuged down once again. The cells were resuspended in 50 mM Tris/Cl, pH 7.5, 2 mM dithiothreitol, 0.5 mM phenylmethylsulfonyl fluoride and disrupted in a French press. The supernatant from a further centrifugation was used as the enzyme extract in the test. The enzyme activity was determined, in a mixture containing 50 mM Tris/Cl, pH 7.6, 1 mM homoserine and 0.1 mM succinyl-CoA, by photometrically quantifying, by means of the decrease in the extinction at 232 nm, the coenzyme A formed in the reaction, following the method described by Kredich and Tomkins for determining the activity of serine acetyltransferases (Kredich N. M. and Tomkins G. M., J. Biol. Chem. 241, 4955-4965 (1966)). The effect of added L-methionine on the activity was determined and the inhibitability was quantified as a Ki value. The Ki which is determined is the concentration of L-methionine at which the activity of the homoserine transsuccinylase is only 50% of its activity in the absence of L-methionine.

[2] = target: T2, E. coli homoserine transsuccinylase (MetA, SEQ ID No. 2) variant pSLmetA*0, amino acid 294 (Tyr) deleted (Escherichia coli, UniProt P07623, DEL294-294); assay: biochemical; conditions: pH 7.6, read-out: Activity (%) in the presence of 1 mM L-methionine
T2 construct: made in house; host or cells: E. coli W3110 (ATCC 27325), cell extract
Description: as §1, §2

[3] = target: T3, E. coli homoserine transsuccinylase (MetA, SEQ ID No. 2) variant pSLmetA*A, Tyr294 replaced with Ala (Escherichia coli, UniProt P07623, Y294A); assay: biochemical; conditions: pH 7.6, read-out: Activity (%) in the presence of 1 mM L-methionine
T3 construct: made in house; host or cells: E. coli W3110 (ATCC 27325), cell extract
Description: as §1, §2

[4] = target: T4, E. coli homoserine transsuccinylase (MetA, SEQ ID No. 2) variant pSLmetA*K, Tyr294 replaced with Lys (Escherichia coli, UniProt P07623, Y294K); assay: biochemical; conditions: pH 7.6, read-out: Activity (%) in the presence of 1 mM L-methionine
T4 construct: made in house; host or cells: E. coli W3110 (ATCC 27325), cell extract
Description: as §1, §2

[5] = target: T5, E. coli homoserine transsuccinylase (MetA, SEQ ID No. 2) variant pSLmetA*L, Tyr294 replaced with Leu (Escherichia coli, UniProt P07623, Y294L); assay: biochemical; conditions: pH 7.6, read-out: Activity (%) in the presence of 1 mM L-methionine
T5 construct: made in house; host or cells: E. coli W3110 (ATCC 27325), cell extract
Description: as §1, §2

[6] = target: T6, E. coli homoserine transsuccinylase (MetA, SEQ ID No. 2) variant pSLmetA*P, Tyr294 replaced with Pro (Escherichia coli, UniProt P07623, Y294P); assay: biochemical; conditions: pH 7.6, read-out: Activity (%) in the presence of 1 mM L-methionine
T6 construct: made in house; host or cells: E. coli W3110 (ATCC 27325), cell extract
Description: as §1, §2

[7] = target: T7, E. coli homoserine transsuccinylase (MetA, SEQ ID No. 2) variant pSLmetA*Q, Tyr294 replaced with Gln (Escherichia coli, UniProt P07623, Y294Q); assay: biochemical; conditions: pH 7.6, read-out: Activity (%) in the presence of 1 mM L-methionine
T7 construct: made in house; host or cells: E. coli W3110 (ATCC 27325), cell extract
Description: as §1, §2

[8] = target: T8, E. coli homoserine transsuccinylase (MetA, SEQ ID No. 2) variant pSLmetAN, Asp101 replaced with Asn (Escherichia coli, UniProt P07623, D101N); assay: biochemical; conditions: pH 7.6, read-out: Activity (%) in the presence of 1 mM L-methionine
T8 construct: made in house; host or cells: E. coli W3110 (ATCC 27325), cell extract
Description: as §1, §2

[9] = target: T1, E. coli homoserine transsuccinylase (MetA, SEQ ID No. 2) variant pKP446, Tyr294 replaced with Cys; assay: Inhibition of homoserine transsuccinylase activity by SAM (cell extract, DTNB assay at 412 nm); assay type: biochemical; conditions: pH 7.5, read-out: Activity (%) in the presence of 1 mM SAM
Protocol: (§3) In order to determine the sensitivity of the activity of the different homoserine transsuccinylases to SAM, it is possible, for example, to carry out an activity test as described in Lee L. W. et al., J. Biol. Chem. 241, 5479-5480 (1966). In this method, the enzyme extract is incubated with homoserine and succinyl-CoA. After various times, a part of the test assay sample is stopped by adding it to a mixture of ethanol, water, and 5,5′-dithiobis(2-nitrobenzoic acid). The absorption is determined photometrically at 412 nm. The described test is suitable, for example, for determining the sensitivity of the homoserine transsuccinylases to SAM.
(§4) The influence of SAM on the activities of the different homoserine transsuccinylases was determined by quantifying the activity in the presence of different concentrations of SAM (Cl salt, Sigma). The cell extracts were grown and prepared as described in Example 3. The activity test was carried out as described in Lee L. W. et al., J. Biol. Chem. 241, 5479-5480 (1966), with the enzyme extract being incubated with 50 mM potassium phosphate buffer, pH 7.5, 3 mM homoserine and 0.3 mM succinyl-CoA. After various times, 100 μl volumes of test mixture were stopped by adding them in each case to a mixture of 400 μl of ethanol, 400 μl of water and 100 μl of 10 mM 5,5′-dithiobis(2-nitrobenzoic acid). After the resulting mixture had been incubated at room temperature for 5 minutes, the absorption was determined photometrically at 412 nm. After the protein concentration had been determined, the enzyme activity was calculated using the extinction coefficient. The Ki was determined as a measure of the ability of SAM to inhibit the activity.

[10] = target: T2, E. coli homoserine transsuccinylase (MetA, SEQ ID No. 2) variant pSLmetA*0, amino acid 294 (Tyr) deleted; assay: as above; assay type: biochemical; conditions: pH 7.5, read-out: Activity (%) in the presence of 1 mM SAM
Protocol: as §3, §4

[11] = target: T3, E. coli homoserine transsuccinylase (MetA, SEQ ID No. 2) variant pSLmetA*A, Tyr294 replaced with Ala; assay: as above; assay type: biochemical; conditions: pH 7.5, read-out: Activity (%) in the presence of 1 mM SAM
Protocol: as §3, §4

[12] = target: T4, E. coli homoserine transsuccinylase (MetA, SEQ ID No. 2) variant pSLmetA*K, Tyr294 replaced with Lys; assay: as above; assay type: biochemical; conditions: pH 7.5, read-out: Activity (%) in the presence of 1 mM SAM
Protocol: as §3, §4

[13] = target: T5, E. coli homoserine transsuccinylase (MetA, SEQ ID No. 2) variant pSLmetA*L, Tyr294 replaced with Leu; assay: as above; assay type: biochemical; conditions: pH 7.5, read-out: Activity (%) in the presence of 1 mM SAM
Protocol: as §3, §4

[14] = target: T6, E. coli homoserine transsuccinylase (MetA, SEQ ID No. 2) variant pSLmetA*P, Tyr294 replaced with Pro; assay: as above; assay type: biochemical; conditions: pH 7.5, read-out: Activity (%) in the presence of 1 mM SAM
Protocol: as §3, §4

[15] = target: T7, E. coli homoserine transsuccinylase (MetA, SEQ ID No. 2) variant pSLmetA*Q, Tyr294 replaced with Gln; assay: as above; assay type: biochemical; conditions: pH 7.5, read-out: Activity (%) in the presence of 1 mM SAM
Protocol: as §3, §4

[16] = target: T8, E. coli homoserine transsuccinylase (MetA, SEQ ID No. 2) variant pSLmetAN, Asp101 replaced with Asn; assay: as above; assay type: biochemical; conditions: pH 7.5, read-out: Activity (%) in the presence of 1 mM SAM
Protocol: as §3, §4

T3 sequence (P07623 2-309 Y294A): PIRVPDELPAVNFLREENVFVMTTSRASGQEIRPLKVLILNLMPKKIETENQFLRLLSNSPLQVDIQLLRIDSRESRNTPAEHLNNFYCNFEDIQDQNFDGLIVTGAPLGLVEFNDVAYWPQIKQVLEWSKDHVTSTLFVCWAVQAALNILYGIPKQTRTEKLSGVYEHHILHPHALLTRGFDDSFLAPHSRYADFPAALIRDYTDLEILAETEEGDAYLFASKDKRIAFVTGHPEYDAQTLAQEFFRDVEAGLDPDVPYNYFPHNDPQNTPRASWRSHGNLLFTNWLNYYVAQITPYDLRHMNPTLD
T2 sequence (P07623 other isoform, or with tags, fused parts or gaps DEL294-294): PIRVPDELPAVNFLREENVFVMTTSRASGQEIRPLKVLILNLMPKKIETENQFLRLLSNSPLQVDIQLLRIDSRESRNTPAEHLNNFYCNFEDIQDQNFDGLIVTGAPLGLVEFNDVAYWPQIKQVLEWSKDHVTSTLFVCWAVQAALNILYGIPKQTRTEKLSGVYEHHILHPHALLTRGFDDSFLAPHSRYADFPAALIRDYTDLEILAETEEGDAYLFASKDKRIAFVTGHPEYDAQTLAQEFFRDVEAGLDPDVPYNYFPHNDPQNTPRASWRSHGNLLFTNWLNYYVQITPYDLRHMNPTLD
T8 sequence (P07623 2-309 D101N): as the sequence (P07623 2-309 Y294A) above, with D100N, A293Y counted along it
T5 sequence (P07623 2-309 Y294L): as the sequence (P07623 2-309 Y294A) above, with A293L counted along it
T6 sequence (P07623 2-309 Y294P): as the sequence (P07623 2-309 Y294A) above, with A293P counted along it
T1 sequence (P07623 2-309 Y294C): as the sequence (P07623 2-309 Y294A) above, with A293C counted along it
T7 sequence (P07623 2-309 Y294Q): as the sequence (P07623 2-309 Y294A) above, with A293Q counted along it
T4 sequence (P07623 2-309 Y294K): as the sequence (P07623 2-309 Y294A) above, with A293K counted along it

Structure (SMILES)	activity at 1000 µM [1]	activity at 1000 µM [2]	activity at 1000 µM [3]	activity at 1000 µM [4]	activity at 1000 µM [5]	activity at 1000 µM [6]	activity at 1000 µM [7]	activity at 1000 µM [8]	activity at 1000 µM [9]	activity at 1000 µM [10]	activity at 1000 µM [11]	activity at 1000 µM [12]	activity at 1000 µM [13]	activity at 1000 µM [14]	activity at 1000 µM [15]	activity at 1000 µM [16]
CSCC[C@H](N)C(=O)O [L-methionine]	96%	98%	94%	92%	89%	91%	95%	86%	–	–	–	–	–	–	–	–
C[S+](CC[C@H](N)C(=O)[O-])C[C@H]1O[C@@H](n2cnc3c(N)ncnc32)[C@H](O)[C@@H]1O (stereo partly shown) [SAM, S-Adenosylmethionine]	–	–	–	–	–	–	–	–	92%	96%	95%	90%	80%	98%	87%	91%
